Data on 31 molecules can be found in patent US4243668A, “Octahydro-1H-benzo[4,5]furo[3,2-e]-isoquinoline analgesic and narcotic antagonistic compounds” (priority 1979, dated 1981).

Each structure is given as a SMILES string. Where two headings read alike, the source gives them in different places. A value given as a limit tells only on which side of the number the result lay.

In assay [1] the test system is pain induced by phenylquinone. As to the kind of experiment: phenylquinone writhing test (oral anti-PQW), analgesic activity. The format is in vivo, female white mice. As to conditions: for ED50: Mus musculus, po, mice, oral, phenylquinone writhing, read-out: EFFECT ED50 Oral Anti-PQW. On the procedure:
A standard procedure for detecting and comparing the analgesic activity of compounds in this series for which there is good correlation with human efficacy is the standard phenylquinone writhing test modified from Siegmund, et al., Proc. Soc. Exp. Biol. Med., 95, 729 (1957). A test compound suspended in 1% methocel® was given orally to fasted (17-21 hours) female white mice, 5-20 animals per double blind test. Aqueous (0.01% phenyl-p-benzoquinone) phenylquinone was injected intraperitoneally at 24 minutes later using 0.20 ml per mouse. […] The effective analgesic dose for 50% of the mice (ED50) was calculated by the moving average method of Thompson, W. R., Bact. Rev., 11, 115-145 (1947).
(In general: In writhing tests, fewer writhes than in controls are read as antinociception.)

The subject of assay [2] is Straub tail. Kind of assay: Straub tail reaction (oral), narcotic agonist effect. The settings on record: Mus musculus, mice. It counts as in vivo, CF1 S female mice. How it is done:
Narcotic analgesics produce in mice an erection and arching of the tail (90° or more) which is referable to spinal cord stimulation. This Straub tail reaction is not produced by other analgesics, including the narcotic antagonists.
The method used was modified from Shemano, I., and Wendel, H., Tox. Appl. Pharm., 6, 334-9 (1964). CF1 S female mice (18-21 g), 10-20 mice per dose, were intubated with log scaled doses of analgesic in 1% aqueous methylcellulose. A positive Straub tail response was recorded if a tail was erected 90° or more for 5 seconds at any time within 24 minutes after dosing. A quantal Straub tail ED50 was calculated by the moving average method [Thompson, W. R., Bact. Rev., 11, 115-145 (1947)].

The subject of assay [3] is induction of Straub tail in mice by a highly addicting agonist such as morphine. Kind of assay: anti-Straub tail test, antagonism of morphine-induced Straub tail (narcotic antagonism). The settings on record: for ED50: Mus musculus; for ED50 / EFFECT ED50 subcutaneous(s.c.) Anti-Straub Tail: mice, vs morphine sulfate 30 mg/kg i.p. The format is in vivo, Female CF1 S mice.

Where [4] appears, read: sc, s.c., read-out: EFFECT ED50 subcutaneous(s.c.) Anti-Straub Tail.
Setting [5] is: ip, i.p., read-out: EFFECT ED50 Intraperitoneal(i.p.) Anti-Straub Tail.

Broadly, the ED50 is the midpoint of the dose-response relation. Turning to `COc1cccc2c1O[C@H]1CCC[C@H]3CN(CC=C(C)C)CC[C@@]231` (relative stereo) [Example 17, 3-(3'-Methyl-2'-butenyl)-9-methoxy-2,3,4,4aα,5,6,7,7aα-octahydro-1H-benzo[4,5]furo[3,2-e]isoquinoline], the ED50 in assay [1] was 18.7 mg/kg; in assay [2], more than 135 mg/kg; in assay [3] (setting [4]), 7.8 mg/kg.

For the molecule `Oc1cccc2c1O[C@H]1CCC[C@H]3CN(Cc4ccccc4)CC[C@@]231` (relative stereo) [Example 11, 3-Benzyl-2,3,4,4aα,5,6,7,7aα-octahydro-1H-benzo[4,5]furo[3,2-e]isoquinoline-9-ol], the results for the median effective dose (ED50) in assay [1], in assay [2] and in assay [3] (setting [4]) were 29 mg/kg, more than 81 mg/kg and 1.2 mg/kg, respectively.

On to `Oc1cccc2c1O[C@H]1CCC[C@H]3CN(CC4CCC4)CC[C@@]231` (relative stereo) [Example 7, 3-Cyclobutylmethyl-2,3,4,4aα,5,6,7,7aα-octahydro-1H-benzo[4,5]furo[3,2-e]isoquinoline-9-ol], for which the 50% effective dose (ED50) is 81 mg/kg in assay [1], more than 81 mg/kg in assay [2] and 0.64 mg/kg in assay [3] (setting [5]).

Regarding `CN1CCC23c4cccc(O)c4OC2CCCC3C1` (single isomer, unassigned; isomer 3) [Example 3 (+)isomer, 3-Methyl-2,3,4,4aα,5,6,7,7aα-octahydro-1H-benzo[4,5]furo[3,2-e]isoquinolin-9-ol], the “EFFECT ED50 subcutaneous(s.c.) Anti-Straub Tail” value in assay [3] (s.c., listed as 3 (+)isomer) is recorded as 3.3.

Consider `CCCCCCCCN1CCC23c4cccc(OC)c4OC2CCCC3C1` (centres unmarked) [Example 29], for which the ED50 is 7.2 mg/kg in assay [1] and more than 27 mg/kg in assay [3] (setting [4]).

Take `COc1cccc2c1OC1CCCC3CN(CC(C)C)CCC231` (centres unmarked) [Example 31]: the ED50 in assay [1] was 94 mg/kg; in assay [2], more than 135 mg/kg; in assay [3] (setting [4]), 0.24 mg/kg.

With `CCCCCCN1CCC23c4cccc(OC)c4OC2CCCC3C1` (centres unmarked) [Example 27], the results for the ED50 in assay [1], in assay [2] and in assay [3] (setting [4]) were 7 mg/kg, 25 mg/kg and more than 27 mg/kg, respectively.

Take `Oc1cccc2c1O[C@H]1CCC[C@H]3CN(CC4CC4)CC[C@@]231` (relative stereo) [Example 5, 3-Cyclopropylmethyl-2,3,4,4aα,5,6,7,7aα-octahydro-1H-benzo[4,5]furo[3,2-e]isoquinolin-9-ol]: the ED50 in assay [1] was 0.75 mg/kg; in assay [2], more than 81 mg/kg; in assay [3] (setting [4]) it was 0.006 mg/kg. Besides, the “analgesic potency compared with morphine” value in assay [1] (mouse analgesia data, relative to morphine) is “several times greater potency than morphine”.

On to `COc1cccc2c1O[C@H]1CCC[C@H]3CN(CC#N)CC[C@@]231` (relative stereo) [Example 20, 9-Methoxy-2,3,4,4aα,5,6,7,7aα-octahydro-1H-benzo[4,5]furo[3,2-e]isoquinoline-3-acetonitrile], for which the ED50 in assay [1] is 26 mg/kg; in assay [2], more than 135 mg/kg; in assay [3] (setting [4]), more than 27 mg/kg.

For `Oc1cccc2c1OC1CCCC3CN(Cc4cccs4)CCC231` (centres unmarked) [Example 42], the values for the ED50 in assay [1] and in assay [2] were 108 mg/kg and more than 135 mg/kg, respectively.

Turning to `CCCCN1CC[C@]23c4cccc(OC)c4O[C@H]2CCC[C@H]3C1` (relative stereo) [Example 23], the ED50 is 33 mg/kg in assay [1], more than 135 mg/kg in assay [2] and 0.82 mg/kg in assay [3] (setting [4]).

As to `Oc1cccc2c1OC1CCCC3CN(CC4CCCO4)CCC231` (centres unmarked) [Example 40], the 50% effective dose (ED50) in assay [1] is 11.8 mg/kg; in assay [3] (setting [4]) it was 0.19 mg/kg.

Take `CCCCCCN1CCC23c4cccc(O)c4OC2CCCC3C1` (centres unmarked) [Example 28]: the ED50 in assay [1] stood at 2.9 mg/kg; in assay [2], 26 mg/kg.

In the case of `COc1cccc2c1OC1CCCC3CN(CC4CCCO4)CCC231` (centres unmarked) [Example 39], the ED50 in assay [1] was 16.7 mg/kg; in assay [3] (setting [4]) it was 4.7 mg/kg.

On to `CN1CC[C@]23c4ccccc4O[C@H]2CCC[C@H]3C1` (relative stereo) [Example 1, 3-Methyl-2,3,4,4aα,5,6,7,7aα,octahydro-1H-benzo[4,5]furo[3,2-e]isoquinoline], for which the ED50 in assay [1] is 14 mg/kg; in assay [2], more than 81 mg/kg.

For `CC(C)=CCN1CC[C@]23c4cccc(O)c4O[C@H]2CCC[C@H]3C1` (relative stereo) [Example 18, 3-(3'-methyl-2'-butenyl)-2,3,4,4aα,5,6,7,7aα-octahydro-1H-benzo[4,5]furo[3,2-e]isoquinolin-9-ol], the ED50 in assay [1] is 10.8 mg/kg; in assay [2], 32 mg/kg; in assay [3] (setting [4]) it was more than 27 mg/kg.

As to `COc1cccc2c1O[C@H]1CCC[C@H]3CN(C)CC[C@@]231` (relative stereo) [Example 2, 9-Methoxy-3-methyl-2,3,4,4aα-5,6,7,7aα-octahydro-1H-benzo[4,5]furo[3,2-e]isoquinoline], the median effective dose (ED50) is 9.8 mg/kg in assay [1], more than 135 mg/kg in assay [2] and 10.1 mg/kg in assay [3] (setting [5]).

On to `COc1cccc2c1OC1CCCC3CN(Cc4ccco4)CCC231` (centres unmarked) [Example 37], for which the ED50 was 84 mg/kg in assay [1], more than 135 mg/kg in assay [2] and 12 mg/kg in assay [3] (setting [4]).

For `Oc1cccc2c1OC1CCCC3CN(Cc4ccco4)CCC231` (centres unmarked) [Example 38], the ED50 in assay [1] was 108 mg/kg; in assay [2] it was more than 135 mg/kg; in assay [3] (setting [4]) it was 7.2 mg/kg.

Consider `CN1CC[C@]23c4cccc(O)c4O[C@H]2CCC[C@H]3C1` (relative stereo) [Example 3, 3-Methyl-2,3,4,4aα,5,6,7,7aα-octahydro-1H-benzo[4,5]furo[3,2-e]isoquinolin-9-ol], for which the ED50 in assay [1] was 3.5 mg/kg; in assay [2] it was more than 135 mg/kg; in assay [3] (setting [4]), 0.27 mg/kg.

On to `COc1cccc2c1O[C@H]1CCC[C@H]3CN(Cc4ccccc4)CC[C@@]231` (relative stereo) [Example 10, 3-Benzyl-9-methoxy-2,3,4,4aα,5,6,7,7aα-octahydro-1H-benzo[4,5]furo[3,2-e]isoquinoline], for which the ED50 was 48 mg/kg in assay [1], more than 81 mg/kg in assay [2] and 48 mg/kg in assay [3] (setting [4]). Further, the “narcotic antagonism, in words” value in assay [3] (mouse anti-Straub tail test) is reported as “pure narcotic antagonists”.

For `CCN1CC[C@]23c4cccc(O)c4O[C@H]2CCC[C@H]3C1` (relative stereo) [Example 14b, 3-Ethyl-2,3,4,4aα,5,6,7,7aα-octahydro-1H-benzo[4,5]furo[3,2-e]isoquinolin-9-ol], the results for the 50% effective dose (ED50) in assay [1], in assay [2] and in assay [3] (setting [4]) were 135 mg/kg, more than 135 mg/kg and 0.028 mg/kg, respectively.

Take `CC(=O)Oc1cccc2c1O[C@H]1CCC[C@H]3CN(CC4CC4)CC[C@@]231` (relative stereo) [Example 9, 3-Cyclopropylmethyl-9-acetoxy-2,3,4,4aα,5,6,7,7aα-octahydro-1H-benzo[4,5]furo[3,2-e]isoquinoline]: the ED50 in assay [1] is 0.75 mg/kg; in assay [2], more than 135 mg/kg; in assay [3] (setting [4]) it was 0.005 mg/kg.

For the molecule `C=CCN1CC[C@]23c4cccc(O)c4O[C@H]2CCC[C@H]3C1` (relative stereo) [Example 16, 3-Allyl-2,3,4,4aα,5,6,7,7aα-octahydro-1H-benzo[4,5]furo[3,2-e]isoquinolin-9-ol], the ED50 is 81 mg/kg in assay [1], more than 81 mg/kg in assay [2] and 0.03 mg/kg in assay [3] (setting [4]).

Regarding `Cc1ccc(CCN2CCC34c5cccc(O)c5OC3CCCC4C2)cc1` (centres unmarked) [Example 36], the ED50 in assay [1] is 0.67 mg/kg; in assay [2], 39 mg/kg; in assay [3] (setting [4]), more than 81 mg/kg.

Turning to `CCCN1CC[C@]23c4cccc(O)c4O[C@H]2CCC[C@H]3C1` (relative stereo) [Example 22], the results for the 50% effective dose (ED50) in assay [1], in assay [2] and in assay [3] (setting [4]) were 112 mg/kg, more than 135 mg/kg and 0.008 mg/kg, respectively.

With `C=CCN1CC[C@]23c4cccc(OC)c4O[C@H]2CCC[C@H]3C1` (relative stereo) [Example 15, 3-Allyl-9-methoxy-2,3,4,4aα,5,6,7,7aα-octahydro-1H-benzo[4,5]furo[3,2-e]isoquinoline], the median effective dose (ED50) in assay [1] is 62 mg/kg; in assay [2], more than 135 mg/kg; in assay [3] (setting [4]) it was 0.3 mg/kg.

As for `CCCCCCCCN1CCC23c4cccc(O)c4OC2CCCC3C1` (centres unmarked) [Example 30], the ED50 in assay [1] was 4.2 mg/kg; in assay [2], 54 mg/kg.

Consider `COc1cccc2c1O[C@H]1CCC[C@H]3CNCC[C@@]231` (relative stereo) [Example 12, 9-Methoxy-2,3,4,4aα,5,6,7,7aα-octahydro-1H-benzo[4,5]furo[3,2-e]isoquinoline], for which the ED50 was 47 mg/kg in assay [1] and more than 81 mg/kg in assay [2].

As to `COc1cccc2c1OC1CCCC3CN(CC4CCCCC4)CCC231` (centres unmarked) [Example 33], the values for the ED50 in assay [1] and in assay [2] were 135 mg/kg and more than 135 mg/kg, respectively.

The molecule `CN1CCC23c4cccc(O)c4OC2CCCC3C1` (single isomer, unassigned; isomer 3) [Example 3 (-)isomer, 3-Methyl-2,3,4,4aα,5,6,7,7aα-octahydro-1H-benzo[4,5]furo[3,2-e]isoquinolin-9-ol] gave an ED50 in assay [2] of more than 135 mg/kg. For the same molecule, the “EFFECT ED50 subcutaneous(s.c.) Anti-Straub Tail” value in assay [3] (s.c., listed as 3 (-)isomer) is 0.14.
